Data published in patent US9447063B2, “Disubstituted adamantyl derivative or pharmaceutically acceptable salt thereof, production method for same, and pharmaceutical composition for suppressing cancer metastasis comprising same as active ingredient” (KOREA RESEARCH INSTITUTE OF BIOSCIENCE AND BIOTECHNOLOGY, priority 2012, dated 2016).

Columns and labels:
[1] = system: human colorectal carcinoma cell line HCT116; test: In vivo inhibition of cancer cell proliferation in the mouse by intraperitoneal administration (HCT116 transplant); design: species or system Balb/c nude mice; conditions: 30 mg/kg intraperitoneal; for Weight changes over the administration time: nude mice
Procedure: First, female Balb/c nude mice (6 weeks old) were administered with the compound prepared in Example 2 via intraperitoneal injection. […] One week later, any change in the tumor size was observed by comparing the volume of the first formed tumor and the volume measured one week after. On the last day, the tumor was weighed. […] All the values of each measurement title were examined by t-test to investigate the statistical significance of the values obtained from the non-treated group, the group treated with the compound of Example 2, and the positive control group.

[2] = system: B16F10 melanoma cells; test: Inhibition of metastasis in vivo in the test mouse (luciferase imaging); design: species or system C57BL/6 mice; conditions: for Weight changes over the administration time: C57BL/6 mice
Procedure: To evaluate the inhibition effect of the compound on metastasis, C57BL/6 mice were transplanted with B16F10 melanoma cells (2×10^6 cells/ml) expressing luciferase via intravenous injection (0.2 ml, 4×10^5 cells/mouse). One hour later, 50 μl of luciferin was administered to each mouse at the concentration of 15 mg/ml via intraperitoneal injection. Then, the compound prepared in Example 2 of the invention was intraperitoneally administered at the concentration of 50 mg/kg 13 times. […] The image of the mouse was photographed every day for 14 days with a live animal imaging system (PHOTON IMAGER, Biospace). On the last day of the experiment, the mouse was sacrificed by using CO2 gas. The lung was extracted from the mouse, and lung metastasis of the skin cancer cells was confirmed. To investigate toxicity, weight and other general symptoms were observed during the experimental period. At this time, all the values of each measurement title were examined by t-test for the statistical significance of the values obtained from the non-treated group, the group treated with the compound of Example 2, and the positive control group. The results are shown in Table 3, Table 4, FIG. 9, and FIG. 10.

Structure (SMILES): CCN(CC)CCNC(=O)c1c(C)[nH]c(/C=C2\C(=O)Nc3ccc(F)cc32)c1C [sunitinib]
- Inhibition rate of tumor growth (tumor volume) ([1]; 0 day): (0%)
- Tumor volume over the administration time (Vt − Vo) ([1]; 0 day): 0.0 ± 0.0
- Weight changes over the administration time ([1]; 0 day): 100.0 ± 0.0%
- Inhibition rate of tumor growth (tumor volume) ([1]; 2 days): (31.7%)
- Weight changes over the administration time ([1]; 2 days): 100.5 ± 1.4%
- Weight changes over the administration time ([1]; 4 days): 100.7 ± 2.0%
- Tumor weight at final day ([1]; 7 days): 1064.9 ± 130.9 mg
- Weight changes over the administration time ([1]; 7 days): 100.8 ± 3.3%
- Weight changes over the administration time ([2]; 0 day): 100.0 ± 0.0%
- Image signals over the administration time ([2]; 0 day, live animal imaging): 857.2 ± 679.3 photons/s/sr
- Weight changes over the administration time ([2]; 2 days): 100.9 ± 2.2%
- Weight changes over the administration time ([2]; 4 days): 102.9 ± 2.0%
- Image signals over the administration time ([2]; 4 days, live animal imaging, Example 2 50 mg/kg, sunitinib 30 mg/kg): 222.0 ± 146.1 photons/s/sr
- Weight changes over the administration time ([2]; 7 days): 103.0 ± 2.8%
- Weight changes over the administration time ([2]; 9 days): 106.0 ± 3.1%
- Inhibition rate of tumor metastasis (image signals) ([2]; 9 days, live animal imaging): (19.9%)
- Image signals over the administration time ([2]; 9 days, live animal imaging, Example 2 50 mg/kg, sunitinib 30 mg/kg): 47.5 ± 10.7 photons/s/sr
- Weight changes over the administration time ([2]; 11 days): 105.4 ± 2.9%
- Weight changes over the administration time ([2]; 14 days): 107.7 ± 3.3%
- Image signal at final day ([2]; 14 days, extracted lung imaging, Example 2 50 mg/kg, sunitinib 30 mg/kg): 21738.7 ± 14939.0
- Image signals over the administration time ([2]; 14 days, live animal imaging, Example 2 50 mg/kg, sunitinib 30 mg/kg): 13084.0 ± 8931.2 photons/s/sr
